Test [1] deals with T1, Monoglyceride lipase (Homo sapiens, UniProt Q99685).
T1 sequence (Q99685 whole entry): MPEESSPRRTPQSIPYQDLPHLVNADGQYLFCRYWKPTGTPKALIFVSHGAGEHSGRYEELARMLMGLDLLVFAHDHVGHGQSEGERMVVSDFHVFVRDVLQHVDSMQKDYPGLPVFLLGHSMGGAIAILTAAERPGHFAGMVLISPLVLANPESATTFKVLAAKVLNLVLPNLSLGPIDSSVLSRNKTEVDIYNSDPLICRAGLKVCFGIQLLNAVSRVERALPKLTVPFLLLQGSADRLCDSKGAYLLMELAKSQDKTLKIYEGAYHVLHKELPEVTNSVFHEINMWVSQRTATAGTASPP
Nature of the test: Inhibition of MAGL (unknown origin).

The test system of test [2] is HeLa. In words: Antitumor activity against human HeLa cells. In kind it is functional, cell-based.
Test [3] has as its target T2, Tyrosine-protein phosphatase non-receptor type 11 (Homo sapiens) (UniProt Q06124).
T2 sequence (whole entry): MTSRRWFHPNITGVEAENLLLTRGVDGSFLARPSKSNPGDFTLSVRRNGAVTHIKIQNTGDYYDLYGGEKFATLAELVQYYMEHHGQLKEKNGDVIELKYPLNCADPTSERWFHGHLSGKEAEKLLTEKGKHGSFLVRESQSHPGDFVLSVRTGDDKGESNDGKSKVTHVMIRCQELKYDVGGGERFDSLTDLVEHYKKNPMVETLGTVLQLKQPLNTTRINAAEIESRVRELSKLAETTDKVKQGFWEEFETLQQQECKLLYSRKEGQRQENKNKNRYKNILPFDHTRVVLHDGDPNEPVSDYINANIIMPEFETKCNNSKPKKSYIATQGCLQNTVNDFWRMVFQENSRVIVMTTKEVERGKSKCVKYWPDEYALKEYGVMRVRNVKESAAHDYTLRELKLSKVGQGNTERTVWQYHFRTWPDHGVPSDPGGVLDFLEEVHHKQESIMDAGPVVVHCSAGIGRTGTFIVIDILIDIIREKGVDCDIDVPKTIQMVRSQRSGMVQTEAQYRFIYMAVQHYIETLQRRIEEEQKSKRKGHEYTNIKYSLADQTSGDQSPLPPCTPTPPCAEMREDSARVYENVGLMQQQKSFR
In words: Inhibition of SHP2 (unknown origin) at 10 uM.

Test [4] has as its target Acetylcholinesterase (Homo sapiens, UniProt P22303). In words: Inhibition of AchE (unknown origin).
Test [5] concerns the target T3, Tyrosine-protein phosphatase non-receptor type 11 (Homo sapiens, UniProt Q06124).
T3 sequence (Q06124 whole entry): T2 sequence (whole entry)
In words: Inhibition of SHP2 (unknown origin).

Test [6] relates to Proteasome. Nature of the test: Inhibition of proteasome (unknown origin). The format is subcellular, Homo sapiens.
Test [7] has as its target T2, Tyrosine-protein phosphatase non-receptor type 11 (Homo sapiens). Nature of the test: Inhibition of SHP2 (unknown origin) at 25 uM.
For test [8] the target is unchanged. In words: Inhibition of SHP2 (unknown origin) at 100 uM.
Test [9] has the same target. Nature of the test: Inhibition of SHP2 (unknown origin) at 20 uM.
In test [10] the target is Cathepsin B (Homo sapiens, UniProt P07858). In words: Inhibition of cathepsin B (unknown origin).
Test [11] concerns the target T2, Tyrosine-protein phosphatase non-receptor type 11 (Homo sapiens). In words: Inhibition of SHP2 (unknown origin) at 5 uM.
Test [12] has the same target. Nature of the test: Inhibition of SHP2 (unknown origin) at 50 uM.
Test [13] can be described thus: Inhibition of IMPDH (unknown origin). Set-up: species or system Homo sapiens.
The test system of test [14] is MDA-MB-231. Nature of the test: Antitumor activity against human MDA-MB-231 cells. In kind it is functional, cell-based.

Non-standard residues stand in square brackets, D forms with d. Residues, ends and D or L forms follow the SMILES beside them. Groups on a side chain read outwards from the residue. *: point of attachment. Phe(4-Br) = N[C@@H](Cc1ccc(Br)cc1)C(=O)O; Phe(4-Cl) = N[C@@H](Cc1ccc(Cl)cc1)C(=O)O; Phe(4-F) = N[C@@H](Cc1ccc(F)cc1)C(=O)O; 2Nal = N[C@@H](Cc1ccc2ccccc2c1)C(=O)O; NEt2 = CCN(CC)*

Results on twelve compounds are retold here after ChEMBL document CHEMBL3400108, “Synthesis and biological evaluation of open-chain analogs of cyclic peptides as inhibitors of cellular Shp2 activity” (Bioorg Med Chem, 2015).

Acetylcholinesterase, sequence (P22303 whole entry): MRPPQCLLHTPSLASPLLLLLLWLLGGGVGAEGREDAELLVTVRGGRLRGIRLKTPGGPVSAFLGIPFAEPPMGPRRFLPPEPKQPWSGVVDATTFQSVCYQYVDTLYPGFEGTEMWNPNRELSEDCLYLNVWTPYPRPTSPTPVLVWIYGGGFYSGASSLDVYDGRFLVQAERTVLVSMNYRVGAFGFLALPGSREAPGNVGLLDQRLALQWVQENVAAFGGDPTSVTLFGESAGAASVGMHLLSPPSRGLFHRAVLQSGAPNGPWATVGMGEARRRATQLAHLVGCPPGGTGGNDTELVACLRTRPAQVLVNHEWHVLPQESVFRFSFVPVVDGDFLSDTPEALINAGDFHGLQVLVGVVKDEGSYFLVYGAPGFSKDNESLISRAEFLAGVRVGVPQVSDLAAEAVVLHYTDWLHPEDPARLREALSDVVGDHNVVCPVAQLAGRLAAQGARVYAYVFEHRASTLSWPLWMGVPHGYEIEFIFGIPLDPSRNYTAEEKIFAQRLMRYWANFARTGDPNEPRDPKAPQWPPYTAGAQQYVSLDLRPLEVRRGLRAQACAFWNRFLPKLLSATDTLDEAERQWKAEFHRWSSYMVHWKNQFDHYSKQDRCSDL

Consider `CCN(CC)C(=O)[C@H](Cc1ccccc1)NC(=O)[C@H](CC(C)C)NC(=O)[C@@H](NC(=O)[C@@H](N)COC(=O)[C@H](CC(C)C)NC(C)=O)C(C)C` (H-S([Leu-Ac])VLF-NEt2), for which the IC50 (usually the concentration needed to halve the response being measured) in test [1] was > 148 µM; in [2], > 50 µg/mL; in test [4], > 148 µM; in [5] it was 36.8 µM; in test [6], > 100 µg/mL; in test [10], > 148 µM. The results for the IC50 in [13] and in test [14] were > 100 µg/mL and > 50 µg/mL, respectively. Moreover, the inhibition (in general, the share of the control response that was lost under treatment) in [3] came out at 31%; in test [7], 46%; in test [8] it was 94%; in test [9] it was 40%; in [11], 12%; in test [12], 83%.

In the case of `CCN(CC)C(=O)[C@H](Cc1ccc(OC)cc1)NC(=O)[C@H](CC(C)C)NC(=O)[C@@H](NC(=O)[C@@H](N)COC(=O)[C@H](CC(C)C)NC(C)=O)C(C)C` (H-S([Leu-Ac])VLY(Me)-NEt2), the IC50 is > 142 µM in [1]; > 50 µg/mL in [2]; > 142 µM in test [4]; > 100 µg/mL in [6]; > 142 µM in [10]; > 100 µg/mL in test [13]. Besides, the IC50 in test [14] was > 50 µg/mL. In addition, the figures for the inhibition in test [8], in test [9] and in [12] were 92%, 34% and 52%, respectively.

Regarding `CCN(CC)C(=O)[C@H](Cc1ccc2ccccc2c1)NC(=O)[C@H](CC(C)C)NC(=O)[C@@H](NC(=O)[C@@H](N)COC(=O)[C@H](CC(C)C)NC(C)=O)C(C)C` (H-S([Leu-Ac])VL[2Nal]-NEt2), the IC50 was > 138 µM in test [1]; > 50 µg/mL in test [2]; > 138 µM in test [4]; > 100 µg/mL in [6]; > 138 µM in test [10]; > 100 µg/mL in [13]. For the same compound, the IC50 in [14] is > 50 µg/mL. Moreover, the inhibition came out at 93% in test [8], 27% in test [9] and 46% in [12].

Regarding `CCN(CC)C(=O)[C@H](Cc1ccc(Br)cc1)NC(=O)[C@H](CC(C)C)NC(=O)[C@@H](NC(=O)[C@@H](N)COC(=O)[C@H](CC(C)C)NC(C)=O)C(C)C` (H-S([Leu-Ac])VL[Phe(4-Br)]-NEt2), the IC50 in test [1] was > 133 µM; in [2], > 50 µg/mL; in [4] it was > 133 µM; in test [5], 33.2 µM; in [6], > 100 µg/mL; in [10], > 133 µM. For the same compound, the IC50 in test [13] was > 100 µg/mL; in [14] it was > 50 µg/mL. Moreover, the inhibition in test [3] came to 26%; in [7], 49%; in test [8], 96%; in test [9] it was 46%; in test [11] it was 21%; in test [12], 78%.

For `CCN(CC)C(=O)[C@H](Cc1ccc(Cl)cc1)NC(=O)[C@H](CC(C)C)NC(=O)[C@@H](NC(=O)[C@@H](N)COC(=O)[C@H](CC(C)C)NC(C)=O)C(C)C` (H-S([Leu-Ac])VL[Phe(4-Cl)]-NEt2), the IC50 was > 141 µM in [1]; > 50 µg/mL in [2]; > 141 µM in test [4]; > 100 µg/mL in [6]; > 141 µM in [10]; > 100 µg/mL in [13]. Also, the half-inhibitory concentration (IC50) in [14] was > 50 µg/mL. Also, the values for the inhibition in [8], in test [9] and in test [12] were 89%, 21% and 49%, respectively.

For `CCN(CC)C(=O)[C@H](Cc1ccc(F)cc1)NC(=O)[C@H](CC(C)C)NC(=O)[C@@H](NC(=O)[C@@H](N)COC(=O)[C@H](CC(C)C)NC(C)=O)C(C)C` (H-S([Leu-Ac])VL[Phe(4-F)]-NEt2), the half-inhibitory concentration (IC50) was > 144 µM in [1]; > 50 µg/mL in test [2]; > 144 µM in [4]; > 100 µg/mL in [6]; > 144 µM in [10]; > 100 µg/mL in [13]. The IC50 in [14] is > 50 µg/mL. Moreover, the inhibition was 97% in test [8], 32% in test [9] and 55% in [12].

In the case of `CCN(CC)C(=O)[C@H](Cc1ccccc1)NC(=O)[C@H](CC(C)C)NC(=O)[C@@H](NC(=O)[C@@H](N)COC(=O)[C@@H]1CCCN1C(C)=O)C(C)C` (H-S([Pro-Ac])VLF-NEt2), the IC50 is > 152 µM in test [1]; > 50 µg/mL in test [2]; > 152 µM in test [4]; > 100 µg/mL in test [6]; > 152 µM in test [10]; > 100 µg/mL in [13]. In [14], the IC50 is > 50 µg/mL. The inhibition in test [8] was 95%; in test [9], 29%; in test [12], 54%.

With `CCN(CC)C(=O)[C@H](Cc1ccc(OC)cc1)NC(=O)[C@H](CC(C)C)NC(=O)[C@@H](NC(=O)[C@@H](N)COC(=O)[C@@H]1CCCN1C(C)=O)C(C)C` (H-S([Pro-Ac])VLY(Me)-NEt2), the IC50 in test [1] is > 145 µM; in test [2] it was > 50 µg/mL; in test [4], > 145 µM; in [6], > 100 µg/mL; in test [10], > 145 µM; in [13] it was > 100 µg/mL. In test [14], the IC50 was > 50 µg/mL. Further, the inhibition in test [8] came to 87%; in test [9], 35%; in test [12], 53%.

In the case of `CCN(CC)C(=O)[C@H](Cc1ccc2ccccc2c1)NC(=O)[C@H](CC(C)C)NC(=O)[C@@H](NC(=O)[C@@H](N)COC(=O)[C@@H]1CCCN1C(C)=O)C(C)C` (H-S([Pro-Ac])VL[2Nal]-NEt2), the IC50 in test [1] is > 141 µM; in [2] it was > 50 µg/mL; in test [4] it was > 141 µM; in test [5], 12.5 µM; in test [6], > 100 µg/mL; in test [10] it was > 141 µM. For the same compound, the 50% inhibitory concentration (IC50) in [13] is > 100 µg/mL; in [14], > 50 µg/mL. The inhibition in test [3] was 47%; in test [7], 61%; in test [8], 94%; in test [9], 58%; in [11], 33%; in test [12], 76%.

Take `CCN(CC)C(=O)[C@H](Cc1ccc(Br)cc1)NC(=O)[C@H](CC(C)C)NC(=O)[C@@H](NC(=O)[C@@H](N)COC(=O)[C@@H]1CCCN1C(C)=O)C(C)C` (H-S([Pro-Ac])VL[Phe(4-Br)]-NEt2): the half-inhibitory concentration (IC50) is > 136 µM in [1]; > 50 µg/mL in [2]; > 136 µM in test [4]; > 100 µg/mL in test [6]; > 136 µM in test [10]; > 100 µg/mL in [13]. For the same compound, in test [14], the IC50 was > 50 µg/mL. Besides, the values for the inhibition in [8], in test [9] and in test [12] were 86%, 20% and 51%, respectively.

Consider `CCN(CC)C(=O)[C@H](Cc1ccc(Cl)cc1)NC(=O)[C@H](CC(C)C)NC(=O)[C@@H](NC(=O)[C@@H](N)COC(=O)[C@@H]1CCCN1C(C)=O)C(C)C` (H-S([Pro-Ac])VL[Phe(4-Cl)]-NEt2), for which the IC50 was > 144 µM in [1]; > 50 µg/mL in test [2]; > 144 µM in test [4]; > 100 µg/mL in test [6]; > 144 µM in test [10]; > 100 µg/mL in [13]. The IC50 in [14] was > 50 µg/mL. The inhibition was 88% in [8], 37% in test [9] and 46% in test [12].

In the case of `CCN(CC)C(=O)[C@H](Cc1ccc(F)cc1)NC(=O)[C@H](CC(C)C)NC(=O)[C@@H](NC(=O)[C@@H](N)COC(=O)[C@@H]1CCCN1C(C)=O)C(C)C` (H-S([Pro-Ac])VL[Phe(4-F)]-NEt2), the IC50 in [1] is > 148 µM; in test [2] it was > 50 µg/mL; in [4] it was > 148 µM; in [5], 31.9 µM; in [6], > 100 µg/mL; in [10], > 148 µM. For the same compound, the values for the IC50 in [13] and in [14] were > 100 µg/mL and > 50 µg/mL, respectively. The inhibition in [3] turned out to be 23%; in test [7], 47%; in test [8], 95%; in test [9], 44%; in test [11] it was 18%; in test [12], 81%.
